In US7833722B2, “Ligands for G protein-coupled receptor protein and use thereof” (Takeda Pharmaceutical Company Limited, priority 2004, dated 2010):

Assays:
[1] = test system: SP-induced biting response (pain response); test: Substance P-induced biting response after intrathecal administration to mice; assay type: in vivo; conditions: 0.66, 2.0 and 6.6 μg/mouse intrathecal with SP 10 μg, male ICR mice, counted for one minute, FIG. 3
Method: In order to examine effects of 5-aminolevulic acid (ALA) on pain, ALA was mixed with substance P (SP) and the mixture was intrathecally administered. Male ICR mice of 5 weeks age for intrathecal administration received incision on the dorsal tail and habituated at least for an hour. Thereafter, SP (10 μg) alone or a mixture of SP (10 μg) and ALA was intrathecally administered to the mice (5 μL/mouse) between the L5 and L6 level of the spinal cord, under no anesthesia. Immediately after administration, the number of times that the mice bit the underbody mutually was counted for one minute and the number was made an indicator of false pain response by SP.

GPR17 [2] = target: T1, GPR17 (Homo sapiens, UniProt Q13304); test: SRE-luciferase reporter assay in GPR17-expressed HeLa cells
GPR17 [3] = target: T1, GPR17; test: Suppression of forskolin-increased intracellular cAMP level in GPR17-expressed CHO cells; assay type: cell-based; parameters: expressed in transfected cells; conditions: forskolin 2 μM, 30 minutes, ALA in various concentrations, FIG. 2
Method: The GPR17-expressed CHO cells was incubated overnight and then washed with an assay medium (HBBBS supplemented with 0.1% bovine serum albumin and 0.2 mM IBMX, followed by incubation at 37° C. for 30 minutes under 5% CO2 conditions. ALA diluted with the assay medium in various concentrations and forskolin were added thereto in 2 μM, followed by incubation at 37° C. for 30 minutes under 5% CO2 conditions. The culture supernatant was discarded and the intracellular cAMP level was determined on a plate reader (EnVision, PerkinElmer), following the protocol of cAMP Screen Kit (Applied Biosystems).

GPR40 = target: T2, GPR40 (Homo sapiens, UniProt O14842); test: SRE-luciferase reporter assay in GPR40 expression cells used for control; assay type: cell-based; conditions: PBG 1000 μM
T2 construct: expressed in transfected cells; host or cells: GPR40 expression cells
T2 sequence (O14842 whole entry, species assumed): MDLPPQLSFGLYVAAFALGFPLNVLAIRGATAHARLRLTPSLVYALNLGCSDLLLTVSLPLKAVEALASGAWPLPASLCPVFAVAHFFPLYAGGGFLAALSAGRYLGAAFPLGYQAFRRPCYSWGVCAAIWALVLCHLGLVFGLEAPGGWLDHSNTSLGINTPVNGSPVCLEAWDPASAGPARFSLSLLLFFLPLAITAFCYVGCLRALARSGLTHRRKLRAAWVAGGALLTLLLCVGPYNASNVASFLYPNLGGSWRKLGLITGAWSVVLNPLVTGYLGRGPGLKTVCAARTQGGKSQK

T1 sequence (Q13304 29-367): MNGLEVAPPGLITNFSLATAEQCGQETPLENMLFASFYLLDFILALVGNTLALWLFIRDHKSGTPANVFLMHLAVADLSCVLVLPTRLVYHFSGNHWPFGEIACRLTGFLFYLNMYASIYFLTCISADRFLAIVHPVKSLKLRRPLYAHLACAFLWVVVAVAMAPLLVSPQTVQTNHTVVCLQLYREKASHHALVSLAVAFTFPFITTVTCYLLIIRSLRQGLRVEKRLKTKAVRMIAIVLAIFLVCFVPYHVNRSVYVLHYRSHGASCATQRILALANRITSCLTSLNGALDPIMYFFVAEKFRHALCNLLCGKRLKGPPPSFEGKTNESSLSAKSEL

SMILES	effect on SP-induced biting response (pain response) [1]	luciferase activity in the GPR17-expressed cells (in words) (GPR17 [2]; ALA 200 μM)	Increased Luciferase Activity (cps) by ALA in GPR17-Expressed Cells (GPR17 [2]; ALA 200 μM, HeLa cells, 4 hours incubation) [cps]	intracellular cAMP level increased by forskolin addition (GPR17 [3])	luciferase activity (cps), GPR40 (control) (GPR40) [cps]	Increased luciferase activity (cps) in the GPR17 expression cells by PBG (GPR17 [2]; PBG 1000 μM) [cps]	luciferase activity in the GPR17 expression cells (in words) (GPR17 [2]; PBG 1000 μM)
NCC(=O)CCC(=O)O [ALA, 5-aminolevulinic acid]	significant suppression effect	increased luciferase activity	6707	dose-dependent and specific decrease	–	–	–
NCc1[nH]cc(CCC(=O)O)c1CC(=O)O [PBG, porphobilinogen]	–	–	–	–	3769	37999	increased luciferase activity
